Tests used:
[1] = molecular target: T1, Angiotensin-converting enzyme (Oryctolagus cuniculus, UniProt P12822); assay: Inhibitory concentration against angiotensin converting enzyme (ACE)
T1 sequence (P12822 whole entry): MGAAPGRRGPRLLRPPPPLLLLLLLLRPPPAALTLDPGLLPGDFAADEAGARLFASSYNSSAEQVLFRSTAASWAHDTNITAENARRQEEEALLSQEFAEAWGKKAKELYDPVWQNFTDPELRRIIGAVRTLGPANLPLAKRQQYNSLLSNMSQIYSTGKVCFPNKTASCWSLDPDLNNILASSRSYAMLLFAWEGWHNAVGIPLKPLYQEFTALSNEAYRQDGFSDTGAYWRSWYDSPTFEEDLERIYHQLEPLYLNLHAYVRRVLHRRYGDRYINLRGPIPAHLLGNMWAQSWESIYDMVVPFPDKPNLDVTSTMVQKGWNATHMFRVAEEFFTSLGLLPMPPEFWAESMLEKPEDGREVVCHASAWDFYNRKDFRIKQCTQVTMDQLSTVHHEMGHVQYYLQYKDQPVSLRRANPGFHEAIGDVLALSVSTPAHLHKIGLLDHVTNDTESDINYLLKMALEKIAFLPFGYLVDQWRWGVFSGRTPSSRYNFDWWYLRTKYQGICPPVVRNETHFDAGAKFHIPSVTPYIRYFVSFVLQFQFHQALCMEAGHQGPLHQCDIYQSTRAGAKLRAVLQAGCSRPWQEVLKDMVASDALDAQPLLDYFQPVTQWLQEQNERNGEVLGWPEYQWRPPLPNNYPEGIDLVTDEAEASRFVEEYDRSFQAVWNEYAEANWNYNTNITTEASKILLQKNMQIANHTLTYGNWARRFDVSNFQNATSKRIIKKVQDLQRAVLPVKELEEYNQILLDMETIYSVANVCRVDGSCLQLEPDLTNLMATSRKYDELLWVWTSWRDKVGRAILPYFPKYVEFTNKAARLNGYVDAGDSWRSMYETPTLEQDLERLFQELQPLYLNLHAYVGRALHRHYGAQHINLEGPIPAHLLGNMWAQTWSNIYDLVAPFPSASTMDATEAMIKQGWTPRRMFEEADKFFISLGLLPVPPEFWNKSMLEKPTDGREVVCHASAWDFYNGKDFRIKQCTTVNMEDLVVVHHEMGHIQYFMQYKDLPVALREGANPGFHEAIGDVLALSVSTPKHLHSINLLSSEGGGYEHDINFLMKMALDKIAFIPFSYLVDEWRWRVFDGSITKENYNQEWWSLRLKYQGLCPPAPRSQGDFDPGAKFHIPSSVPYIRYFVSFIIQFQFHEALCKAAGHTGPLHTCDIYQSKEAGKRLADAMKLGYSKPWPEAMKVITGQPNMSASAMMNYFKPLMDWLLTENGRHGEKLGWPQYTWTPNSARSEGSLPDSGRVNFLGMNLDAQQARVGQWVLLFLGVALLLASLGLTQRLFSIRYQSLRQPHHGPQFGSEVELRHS

[2] = molecular target: T1, Angiotensin-converting enzyme; assay: Inhibitory concentration against angiotensin converting enzyme (ACE); No activity in experimental concentration range

Row | Structure (SMILES) | IC50 [1] | IC50 [2]
1 | O=C(N[C@@H](Cc1ccccc1)C(=O)C[C@@H](O)C(=O)N1CCC[C@H]1C(=O)O)c1ccccc1 | 5 µM | 
2 | O=C(N[C@@H](Cc1ccccc1)C1=NO[C@H](C(=O)N2c3ccccc3C[C@H]2C(=O)O)C1)c1ccccc1 |  | Not Active
3 | O=C(N[C@@H](Cc1ccccc1)C(=O)C[C@H](O)C(=O)N1CCC[C@H]1C(=O)O)c1ccccc1 | 100 µM | 
4 | O=C(N[C@@H](Cc1ccccc1)C(=O)C[C@H](O)C(=O)N1c2ccccc2C[C@H]1C(=O)O)c1ccccc1 | 5 µM | 
5 | O=C(N[C@@H](Cc1ccccc1)C(=O)C[C@@H](O)C(=O)N1c2ccccc2C[C@H]1C(=O)O)c1ccccc1 | 0.09 µM | 

Results, then the molecule that gave them:

Row | IC50 [1] | IC50 [2] | Structure (SMILES)
6 |  | Not Active | O=C(N[C@@H](Cc1ccccc1)C1=NO[C@H](C(=O)N2CCC[C@H]2C(=O)O)C1)c1ccccc1
7 |  | Not Active | O=C(N[C@@H](Cc1ccccc1)C1=NO[C@@H](C(=O)N2CCC[C@H]2C(=O)O)C1)c1ccccc1
8 | > 1000 µM |  | O=C(N[C@@H](Cc1ccccc1)C1=NO[C@@H](C(=O)N2c3ccccc3C[C@H]2C(=O)O)C1)c1ccccc1
